{
  "source": "patent US20110152362A1",
  "about": "“METHODS OF TREATING EPILEPTOGENESIS AND EPILEPSY” (priority 2004, published 2011)",
  "key": {"[1]": {"assay": "Blood levels in rats, oral administration of Test Compound for 8 days (toxicology studies)", "assay_type": "in vivo", "settings": "rat; for Cmax at 8 days: blood", "from_the_text": "In toxicology studies in rats, oral administration of Test Compound (TC) for 8 days produced the following C max and AUC: […]"}, "[2]": {"system": "rats subjected to Li-pilo induced SE", "assay": "Example 1: mortality induced by lithium-pilocarpine status epilepticus", "assay_type": "in vivo, rat", "procedure": "The bilateral EEG cortical activity was recorded during the whole duration of SE and behavioral changes were noted.\nThe effects of increasing doses of the Test Compound were studied on 3 groups of rats. The animals of the first group received 10 mg/kg of the test compound, i.p., 1 h after the onset of SE (pilo-TC10) while the animals of groups 2 and 3 received 30 and 60 mg/kg of the Test Compound (pilo-TC30 and pilo-TC60), respectively.\nThe control group received saline instead of pilocarpine and the Test Compound (saline-saline). […] Pilo-DZP received a second injection of 1 mg/kg DZP on the day of SE at about 10 h after the first one. Thereafter, Pilo-DZP and saline-saline rats received twice daily an equivalent volume of saline."}, "[3]": {"system": "rats subjected to Li-pilo induced SE", "assay": "Example 1: Timm staining, mossy fiber sprouting in hippocampus", "assay_type": "in vivo, rat", "settings": "for Timm score: 60 mg/kg", "procedure": "At 2 months after the onset of spontaneous recurrent seizures, mossy fiber sprouting was examined on rats in the chronic period exposed to the test compound or DZP and in 3 saline-saline rats. Animals were deeply anaesthetized and perfused transcardially with saline followed by 100 ml of 1.15% (w/v) Na2S in 0.1 M phosphate buffer, and 100 ml of 4% (v/v) formaldehyde in 0.1 M phosphate buffer. Brains were removed from skull, post-fixed in 4% formaldehyde during 3-5 h and 40 μm sections were cut on a sliding vibratome and mounted on gelatin-coated slides.\nThe following day, sections were developed in the dark in a 26° C. solution of 50% (w/v) arabic gum (160 ml), sodium citrate buffer (30 ml), 5.7% (w/v) hydroquinone (80 ml) and 10% (w/v) silver nitrate (2.5 ml) during 40-45 min. The sections were then rinsed with tap water at 40° C. during at least 45 min, rinsed rapidly with distilled water and allowed to dry. They were dehydrated in ethanol and coverslipped.\nMossy fiber sprouting was evaluated according to criteria previously described in dorsal hippocampus (Cavazos et al., 1991, J Neurosci 11:2795-2803.), which are follows: 0—no granules between the tips and crest of the DG; 1—sparse granules in the supragranular region in a patchy distribution between the tips and crest of DG; 2—more numerous granules in a continuous distribution between the tips and crest of DG; 3—prominent granules in a continuous pattern between tips and crest, with occasional patches of confluent granules between tips and crest; 4—prominent granules that form a confluent dense laminar band between tips and crest and 5—confluent dense laminar band of granules that extends into the inner molecular layer."}, "[4]": {"system": "rats subjected to li-pilo SE", "assay": "Example 2: quantification of cell densities 14 days after li-pilo SE;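 also: Thionine-stained 20 µm brain sections, neurons with cell bodies above 10 µm counted, value is the mean of 12 fields per structure from three adjacent sections, both sides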", "experimental": "All rats received lithium chloride (3 meq/kg, i.p., Sigma, St Louis, Mo., U.S.A.) and about 20 h later, all animals received also methylscopolamine bromide (1 mg/kg, s.c., Sigma) that was administered to limit the peripheral effects of the convulsant. […] The effects of increasing doses of TC were studied in 5 groups of rats. […] The control group received vehicle instead of pilocarpine and TC.\nFor neuronal counting, animals were deeply anesthetized with 1.8 g/kg pentobarbital (Dolethal®, Vetoquinol, Lure, France). Brains were then removed and frozen. Serial 20 μm slices were cut in a cryostat, air-dried during several days before thionine staining. […] The grid of counting was placed on a well defined area of the cerebral structure of interest and counting was carried out with a microscopic enlargement of 200- or 400-fold defined for each single cerebral structure. Cell counts were performed twice on each side of three adjacent sections for each region by a single observer unaware of the animal's treatment. The number of cells obtained in the 12 counted fields in each cerebral structure was averaged. This procedure was used to minimize the potential errors that could result from double counting leading to overestimation of cell numbers. […] Counts involved only neurons with cell bodies larger than 10 μm. Cells with small cell bodies were considered as glial cells and were not counted.\nFor neuronal damage and epileptogenesis, statistical analysis between groups was performed by means of a one-way analysis of variance followed by a post-hoc Dunnett or Fisher test using the Statistica software."}, "[5]": {"settings": "pilo-TC30 (TC 30 mg/kg), 14 days after li-pilo SE"}, "[6]": {"settings": "pilo-TC60 (TC 60 mg/kg), 14 days after li-pilo SE"}},
  "data": [
    {"smiles": "NC(=O)OC[C@@H](O)c1ccccc1Cl", "note": "[TC]", "values": [
      {"measurement": "Cmax at 8 days", "setting": "[1]; oral 30 mg/kg/day for 8 days", "value": 9330, "unit": "ng/mL"},
      {"measurement": "Cmax at 8 days", "setting": "[1]; oral 100 mg/kg/day for 8 days", "value": 20600, "unit": "ng/mL"},
      {"measurement": "Cmax at 8 days", "setting": "[1]; oral 300 mg/kg/day for 8 days", "value": 70300, "unit": "ng/mL"},
      {"measurement": "AUC", "setting": "[1]; oral 30 mg/kg/day for 8 days", "value": 97.32, "unit": "micrograms-hour/mL"},
      {"measurement": "AUC", "setting": "[1]; oral 100 mg/kg/day for 8 days", "value": 230.33, "unit": "micrograms-hour/mL"},
      {"measurement": "AUC", "setting": "[1]; oral 300 mg/kg/day for 8 days", "value": 525.95, "unit": "micrograms-hour/mL"},
      {"measurement": "mortality during the first 48 h after SE", "setting": "[2]; pilo-TC10, 10 mg/kg i.p.", "value": 26, "unit": "%"},
      {"measurement": "mortality during the first 48 h after SE", "setting": "[2]; pilo-TC30, 30 mg/kg i.p.", "value": 20, "unit": "%"},
      {"measurement": "mortality during the first 48 h after SE", "setting": "[2]; pilo-TC60, 60 mg/kg i.p.", "value": 4, "unit": "%"},
      {"measurement": "Timm score", "setting": "[3]; subgroup with early SRS occurrence", "value": "1.8±0.6"},
      {"measurement": "Timm score", "setting": "[3]; subgroup with late occurrence or absence of SRS", "value": "1.2±0.6"},
      {"measurement": "Timm score in the upper blade of the dentate gyrus, mean", "setting": "[3]; pilo-TC10 rats", "value": "1.5±0.6"},
      {"measurement": "Timm score in the upper blade of the dentate gyrus, mean", "setting": "[3]; pilo-TC30 rats", "value": "2.6±1.0"},
      {"measurement": "Timm score in the upper blade of the dentate gyrus, mean", "setting": "[3]; whole group of pilo-TC60 rats", "value": "1.5±0.7"},
      {"measurement": "protective effects at lowest dose tested in Example 2", "setting": "[4]; 30 mg/kg", "value": "some measurable protective effects"},
      {"measurement": "neuronal drop out, layer II of the dorsal piriform cortex", "setting": "[4]; TC 60 mg/kg, 14 days after SE", "value": 25, "unit": "%"},
      {"measurement": "damage remaining, ventral entorhinal cortex layer II", "setting": "[4]; TC 90 mg/kg, 14 days after SE", "value": 4, "unit": "%"},
      {"measurement": "damage remaining, ventral entorhinal cortex layers III/IV", "setting": "[4]; TC 90 mg/kg, 14 days after SE", "value": 17, "unit": "%"},
      {"measurement": "neuronal density in piriform cortex, % of control levels", "setting": "[4]; TC 120 mg/kg, 14 days after SE", "value": "78-96 % of control levels"},
      {"measurement": "neurons surviving in entorhinal cortex, dorsal and ventral", "setting": "[4]; TC 120 mg/kg, 14 days after SE", "value": "85-94%"},
      {"measurement": "cell loss (drop out) in the hilus of dentate gyrus", "setting": "[4]; TC30, 60 and 90 groups (range also covers DZP), 14 days after SE", "value": "61-66%"},
      {"measurement": "cell loss, CA1 pyramidal cell layer", "setting": "[4]; TC30, 60 or 90 rats, 14 days after SE", "value": "36-47%"},
      {"measurement": "cell loss, CA1 pyramidal cell layer", "setting": "[4]; TC120 group, 14 days after SE", "value": 12, "unit": "%"},
      {"measurement": "neuronal loss in the hilus of dentate gyrus", "setting": "[4]; TC120 group, 14 days after SE", "value": 53, "unit": "%"},
      {"measurement": "neuronal drop out in thalamic nuclei", "setting": "[4]; TC120 rats, 14 days after SE", "value": "4-19%"},
      {"measurement": "number of neurons in all amygdala nuclei, % of the control level", "setting": "[4]; highest dose, 120 mg/kg, 14 days after SE", "value": "86-99 % of the control level"},
      {"measurement": "number of neuronal cell bodies: Amygdala Basolateral", "setting": "[4]; [5]", "value": "27.3 ± 4.9**°"},
      {"measurement": "number of neuronal cell bodies: Amygdala Medial, dorsal anterior", "setting": "[4]; [5]", "value": "46.8 ± 5.0"},
      {"measurement": "number of neuronal cell bodies: Amygdala Medial, ventral posterior", "setting": "[4]; [5]", "value": "22.3 ± 1.8"},
      {"measurement": "number of neuronal cell bodies: Cerebral cortex Entorhinal, layer II, dorsal", "setting": "[4]; [5]", "value": "23.4 ± 0.6"},
      {"measurement": "number of neuronal cell bodies: Cerebral cortex Entorhinal, layer II, ventral", "setting": "[4]; [5]", "value": "22.7 ± 0.9"},
      {"measurement": "number of neuronal cell bodies: Cerebral cortex Entorhinal, layer III/IV, dorsal", "setting": "[4]; [5]", "value": "22.3 ± 0.5"},
      {"measurement": "number of neuronal cell bodies: Cerebral cortex Entorhinal, layer III/IV, ventral", "setting": "[4]; [5]", "value": "13.2 ± 1.9"},
      {"measurement": "number of neuronal cell bodies: Cerebral cortex Piriform, layer II, dorsal", "setting": "[4]; [5]", "value": "15.7 ± 2.9"},
      {"measurement": "number of neuronal cell bodies: Cerebral cortex Piriform, layer II, ventral", "setting": "[4]; [5]", "value": "7.2 ± 3.8"},
      {"measurement": "number of neuronal cell bodies: Cerebral cortex Piriform, layer III", "setting": "[4]; [5]", "value": "1.8 ± 1.8"},
      {"measurement": "number of neuronal cell bodies: Hippocampus CA1 area", "setting": "[4]; [5]", "value": "39.3 ± 44**°°"},
      {"measurement": "number of neuronal cell bodies: Hippocampus CA3 area", "setting": "[4]; [5]", "value": "35.7 ± 1.8"},
      {"measurement": "number of neuronal cell bodies: Hippocampus Hilus", "setting": "[4]; [5]", "value": "33.0 ± 3.2"},
      {"measurement": "number of neuronal cell bodies: Thalamus Central medial", "setting": "[4]; [5]", "value": "75.6 ± 7.7"},
      {"measurement": "number of neuronal cell bodies: Thalamus Dorsolateral, medial, dorsal", "setting": "[4]; [5]", "value": "64.2 ± 9.3**°°"},
      {"measurement": "number of neuronal cell bodies: Thalamus Dorsolateral, ventral lateral", "setting": "[4]; [5]", "value": "8.8 ± 2.8"},
      {"measurement": "number of neuronal cell bodies: Thalamus Mediodorsal central", "setting": "[4]; [5]", "value": "26.9 ± 0.6"},
      {"measurement": "number of neuronal cell bodies: Thalamus Mediodorsal lateral", "setting": "[4]; [5]", "value": "20.5 ± 0.7"},
      {"measurement": "number of neuronal cell bodies: Thalamus Mediodorsal medial", "setting": "[4]; [5]", "value": "11.5 ± 2.5"},
      {"measurement": "number of neuronal cell bodies: Amygdala Basolateral", "setting": "[4]; [6]", "value": "27.8 ± 4.3**°°"},
      {"measurement": "number of neuronal cell bodies: Amygdala Medial, dorsal anterior", "setting": "[4]; [6]", "value": "58.4 ± 2.8**°"},
      {"measurement": "number of neuronal cell bodies: Amygdala Medial, ventral posterior", "setting": "[4]; [6]", "value": "26.2 ± 2.9"},
      {"measurement": "number of neuronal cell bodies: Cerebral cortex Entorhinal, layer II, dorsal", "setting": "[4]; [6]", "value": "23.9 ± 0.5"},
      {"measurement": "number of neuronal cell bodies: Cerebral cortex Entorhinal, layer II, ventral", "setting": "[4]; [6]", "value": "23.3 ± 0.8"},
      {"measurement": "number of neuronal cell bodies: Cerebral cortex Entorhinal, layer III/IV, dorsal", "setting": "[4]; [6]", "value": "23.2 ± 0.8"}
    ]}
  ]
}
